The record followed here is patent US20230092679A1, “MCL-1 INHIBITOR ANTIBODY-DRUG CONJUGATES AND METHODS OF USE” (NOVARTIS AG, priority 2019, published 2023).

What all share (assay): CellTiter-Glo proliferation assay (Example 6)
Assay type in all cases: cell-based
Background: Cellular ATP, detected with luciferase, serves as a proxy for viable cell number.

For one assay, the system named is RS4;11. The note with it: CD79b Mcl-1 ADCs and payload P1, 5 days. Here is the method:
(§1) Mcl-1 ADCs were tested on nine endogenous cancer cell lines and one isogenic cell line engineered to overexpress a target of interest. Six targets were assessed: HER2, BCMA, CD38, CD48, CD79b, and CD33.
(§2) Cell lines • HER2: HCC1954 (ATCC No. CRL-2338 cultured in RPMI-1640+10% FBS) and HCC2218 (ATCC No. CRL-2343 cultured in RPMI-1640+10% FBS). • BCMA: NCI-H929 (ATCC No. CRL-9068 cultured in RPMI-1640+10% FBS+0.05 mM 2-mercaptoethanol). • CD38: A4-Fuk (JCRB No. JCRB0097 cultured in RPMI-1640+10% FBS) and KMS-21 BM (JCRB No. JCRB1185 cultured in RPMI-1640+10% FBS). • CD48: NCI-H929 (ATCC No. CRL-9068 cultured in RPMI-1640+10% FBS+0.05 mM 2-mercaptoethanol), OPM-2 (DSMZ No. ACC-50 cultured in RPMI-1640+10% FBS) and AMO1 (DSMZ No. ACC-538 cultured in RPMI-1640+20% FBS). • CD79b: RS4;11 (ATCC No. CRL-1873 cultured in RPMI-1640+10% FBS). • CD33: MOLM-13 (DSMZ No. ACC-554 cultured in RPMI-1640+10% FBS) and an isogenic cell line, AMO1-CD33 clone D2. AMO1 cell line was transfected to generate a stable AMO1 cell line expressing the exogenous protein of interest, CD33, AMO1-CD33 clone D2 (cultured in RPMI-1640+20% FBS).
(§3) The ability of Mcl-1 ADCs to inhibit cell proliferation and survival was assessed using a Promega CellTiter-Glo® proliferation assay. Cell lines were cultured in media optimal for their growth at 5% CO2, 37° C. in a tissue culture incubator. Prior to seeding for the proliferation assay, the cells were split at least 2 days before the assay to ensure optimal growth density. On the day of seeding, adherent cells were lifted off tissue culture flasks using 0.25% trypsin. Cell viability and cell density were determined using a cell counter (Vi-Cell XR Cell Viability Analyzer, Beckman Coulter). […] Cells were seeded at a density of 1,000 cells per well in 45 μl of standard growth media. Plates were incubated at 5% CO2, 37° C. overnight in a tissue culture incubator. The next day, free Mcl-1 payload (P1), targeting Mcl-1 ADCs, and non-targeting isotype ADCs were prepared at 10× in standard growth media. The prepared drug treatments were then added to the cells resulting in final concentrations of 0.0005-500 nM and a final volume of 50 μl per well. Each drug concentration was tested in quadruplets. Plates were incubated at 5% CO2, 37° C. for 5 days in a tissue culture incubator, after which cell viability was assessed through the addition of 25 μl of CellTiter Glo® (Promega, Cat. No. G7573), a reagent which lyses cells and measures total adenosine triphosphate (ATP) content. Plates were incubated at room temperature for 10 minutes to stabilize luminescent signals prior to reading using a luminescence reader (EnVision Multilabel Plate Reader, PerkinElmer). To evaluate the effect of the drug treatments, luminescent counts from wells containing untreated cells (100% viability) were used to normalize treated samples. A variable slope model was applied to fit a nonlinear regression curve to the data in GraphPad PRISM version 7.02 software. IC50 and Amax values were extrapolated from the resultant curves.

Another assay has as its system MOLM-13. The settings on record: CD33 Mcl-1 ADCs and payload P1, 5 days. Here is the method: as §1, §2, §3
Another assay relates to HCC1954. The note with it: HER2 Mcl-1 ADCs and payload P1, 5 days. As to the method: as §1, §2, §3
For the next assay, the system named is NCI-H929. The note with it: for Amax H929: in %; for IC50: Homo sapiens, NCI-H929, 120 h. As to the method:
as §1, §2, §3

The test system of the next assay is OPM-2. The settings on record: CD48 Mcl-1 ADCs and payload P1, 5 days. Here is the method:
as §1, §2, §3

Another assay deals with HCC2218. The settings on record: HER2 Mcl-1 ADCs and payload P1, 5 days. As to the method:
as §1, §2, §3

The mark [1] stands for this setting: BCMA Mcl-1 ADCs (Table 29) and payload P1, 5 days.
The mark [2] stands for this setting: CD48 Mcl-1 ADCs (Table 25) and payload P1, 5 days.

What is called IC50 is the concentration that gives 50% inhibition.

The structures appear in SMILES notation.

As for `COc1ccccc1-c1nccc(COc2ccccc2C[C@@H](Oc2ncnc3sc(-c4ccc(F)cc4)c(-c4ccc(OCCN5CCN(C)CC5)c(Cl)c4C)c23)C(=O)O)n1` [P1, (2R)-2-[5-[3-chloro-2-methyl-4-[2-(4-methylpiperazin-1-yl)ethoxy]phenyl]-6-(4-fluorophenyl)thieno[2,3-d]pyrimidin-4-yl]oxy-3-[2-[[2-(2-methoxyphenyl)pyrimidin-4-yl]methoxy]phenyl]propanoic acid], the “Amax RS; 411” value with RS4;11 was 132.40. Besides, the IC50 with RS4;11 (Homo sapiens, RS4-11, 120 h, read-out: IC50 (nM) RS, 411) is 0.299 nM; in the assay with MOLM-13 (Homo sapiens, MOLM-13, 120 h, read-out: IC50 (nM) MOLM13), 2.44 nM; in the assay with HCC1954 (Homo sapiens, HCC1954, 120 h), 63.5 nM; in the assay with NCI-H929 (setting [1]), 5.61 nM; in the assay with NCI-H929 (setting [2]), 0.394 nM; in the assay with OPM-2 (Homo sapiens, OPM-2, 120 h, read-out: IC50 (nM) OPM2), 0.136 nM. Inhibition with HCC2218 (Homo sapiens, HCC2218, 120 h) was half-maximal at 14.1 nM (IC50). In addition, the “Amax MOLM13” value with MOLM-13 turned out to be 128.80. In the assay on HCC1954 (unit assumed), this compound returned an Amax HCC1954 of 64.8%. Moreover, the entries for the “Amax H929” value in the assay on NCI-H929 (setting [1]) and with NCI-H929 (setting [2]) were 89.16 and 25.79, respectively. The “Amax OPM2” value in the assay on OPM-2 stood at 22.97. Also, the “Amax HCC2218” value with HCC2218 (in % (unit assumed)) turned out to be 100.40.
